Measured values published in patent US20240343699A1, “DERIVATIVES OF SUBSTITUTED MORPHOLINES AND USES THEREOF” (Supernus Pharmaceuticals, Inc., priority 2023, published 2024).
Where a name gives a salt, the structure may show the parent alone.

How the values were obtained:
[1] = test system: anxiety-like behavior; experiment: Elevated plus maze (EPM); assay type: in vivo, male Wistar rats; settings: for Closed arm entries / Closed arm returns / Head dips in open arms / Stretch-attend postures / Time in closed arms / Time in open arms / Total arm entries: mean; for % Time in open arms / Open Arm Entries / Total distance travelled: mean ± S.E.M.
[2] = test system: behavioral signature; experiment: SmartCube phenotypic screening (class/subclass and DRFA similarity analysis); assay type: in vivo, male C57/B16 mice
Description: A study was conducted to evaluate the CNS-like efficacy of novel test compounds using the SmartCube® System.
Animals. Male C57/B16 mice from Taconic Laboratories (Germantown, NY) were used. Upon receipt, mice were group-housed in OPTIMice® ventilated cages with 4 mice per cage. Mice were acclimated to the colony room for at least one week prior to test, and subsequently tested at approximately 8-9 weeks of age. All animals were examined, handled, and weighed prior to initiation of the study to assure adequate health and suitability and to minimize nonspecific stress associated with manipulation. During the course of the study, 12/12 light/dark cycles were maintained. The room temperature was 20-23° C. with a relative humidity maintained between 30-70%. Chow and water were provided ad libitum for the duration of the study.
Test compounds. All compounds were administered orally at a dose volume of 10 mL/kg, 20 minutes prior to testing. Formulations were prepared fresh on day of testing and dosing was completed within one hour of formulation. Compounds were prepared according to the table below. Twelve mice were used in each treatment group:
SmartCube®. The SmartCube® system is designed to and can successfully measure numerous spontaneous behaviors and response to challenges in the same testing environment. The hardware includes force sensors and a number of aversive stimuli to elicit behavior. Three high-resolution video cameras provide constant 3D view of the mouse in the SmartCube® apparatus (SC) throughout the entire testing period. During the 45-minute test session the mice are exposed to a sequence of challenges. The cubes are cleaned between each run.
Digital videos of the subjects were processed through computer segmentation algorithms to fit geometrical models to each mouse frame image. The resulting fitted parameters were then analyzed using behavioral classifier algorithms to extract behavioral states, such as rearing, locomotion, and immobility. The data obtained in this way was used to define a drug signature for PGI's known reference compounds and establish a therapeutic class signature against which a test sample can be compared.
The data mining effort utilizes several analytical methods including Bayesian probabilistic density models and Decision trees. The algorithms consider ˜2,600 measures including frequency and duration of behavioral states such as grooming, rearing, etc., and many other features obtained during the test session.
Two major types of analyses are routinely conducted: Class and subclass.
Each reference drug was tested at multiple doses appropriate for that drug in mice.
Multiple analyses of the data were performed to quantitatively produce independent predictions of drug class, and drug subclass. The behavioral signatures of the test drugs were evaluated using these classifiers to predict potential therapeutic utility.
The results for the class and subclass analyses are presented as standardized bar charts with percentages that sum to 100 for each dose.
Similarity Analysis Using “Clouds Framework”. The outcome from SmartCube® is a large set of features (behavioral parameters) that can be used for various analyses. […] Therefore, we formed statistically independent combinations of the original features (further referred to as de-correlated features). Each de-correlated feature extracted information from the whole cluster of the original features, so the new feature space would have lower dimensionality. Next, we applied a proprietary feature ranking algorithm to score each feature for its discrimination power (ability to separate the two groups, e.g. vehicle from treatment). Ranking is an important part of our analyses because it weighs each feature change by its relevance. We applied a feature ranking algorithm, derived from support vector in the support vector machine learning method, to rank each feature.

[3] = test system: prepulse inhibition; experiment: Prepulse inhibition (PPI) of the auditory startle response, apomorphine-impairment model; settings: for % PPI (mean ± SEM): averaged across prepulse levels
Description: Four standard startle chambers (San Diego Instruments, San Diego, CA) were used. […] The tube is mounted on a plastic frame, under which a piezoelectric accelerometer is mounted, which records and transduces the motion of the tube. Three days before drug testing the experimental subjects were each placed in one of the startle test chambers for a period of 10 minutes (without any startle stimuli) as an initial period of acclimation to the apparatus. Two days before drug testing the animals were again placed in the test chamber and then exposed to 12 startle stimuli and to each prepulse level 3 times (see below). This procedure was done to reduce the highly variable responses to the initial exposures to the startle stimuli as well as to ensure that the prepulse stimuli (alone) had no significant effect on the startle response. One day before drug testing, a full 60 trial PPI test session (as subsequently described for the drug testing experiments, see below) was conducted for all experimental subjects.
On the day of drug testing the rats were transported to the startle chamber room and left undisturbed for at least 30 min. […] After this period, the rats received 12 startle trials, 12 no-stimulus trials, and 12 trials of each of the prepulse/startle trials (see below) for a total of 60 trials. The intertrial interval ranged from 10 to 30 s, and the total session lasted about 25-30 min. The startle trials consisted of single 120 dB white noise bursts lasting 20 ms.
The prepulse inhibition trials consisted of a prepulse (20 ms burst of white noise with intensities of 75, 80, or 85 dB) followed, 100 ms later, by a startle stimulus (120 dB, 20 ms white noise). During the no-stimulus trial, no startle noise was presented, but the movement of the rat was recorded. This represented a control trial for detecting differences in overall activity. The 60 different trials were presented pseudo-randomly, ensuring that each trial was presented 12 times and that no two consecutive trials were identical. The resulting movement of the rat in the startle chamber was measured during 100 ms after startle stimulus onset (sampling frequency 1 kHz), rectified, amplified, and fed into a computer that determined the maximal response that occurred during the 100-ms period. Basal startle amplitude was determined as the mean amplitude of the 12 startle trials. Prepulse inhibition was calculated according to the formula 100−100%×(PPx/P120), in which PPx is the mean of the 12 prepulse inhibition trials (i.e., for each individual prepulse level), and p120 is the basal startle amplitude. The average level of PPI was also calculated (average of the responses to pp75, pp80, or pp85) and analyzed separately.

[4] = test system: sleep/wake and cataplexy; assay type: in vivo, male DTA mice; settings: amphetamine 2 mg/kg i.p.
[5] = PK of S-viloxazine after single PO administration; settings: for Tmax: 40 mg/kg
Description: Study Design. […] Food was returned 2 hours post-dose.
Test Article Formulation.

[6] = test system: cognitive flexibility; experiment: Operant set-shifting test against PCP; assay type: in vivo, male Wistar rats
Description: This assay serves as a model of impaired executive function associated with neuropsychiatric disorders like schizophrenia. The aim of this study was to evaluate COMPOUND C to reverse deficits observed with PCP on cognitive flexibility using the operant set-shifting test in the rat.
Substances & Formulation.
Doses were prepared by separate weighing (W/V). COMPOUND C formulations were prepared fresh on each dosing day and dosing was completed within 8 hours of formulation. Phencyclidine (PCP) hydrochloride, white powder, was dissolved in physiological saline by magnetic stirring, fresh each day of dosing.
Test System. 78 male Wistar rats were supplied for this study. • 72 rats, 8-9 weeks old, weighing 218-299 g at the beginning of the visual discrimination were submitted to the entire behavioral testing and assigned to match groups based on their performance during the second visual discrimination session. • 6 spare rats were submitted to lever pressing, side bias and visual discrimination but were discarded for the testing period (set-shift and reversal)
The experimental protocol which detects effects on behavioral flexibility follows that described by Floresco et al. (Behav. Brain Res., 190, 85-96 (2008)).
Apparatus. The apparatus consists of standard Med Associates ENV-008 Skinner boxes (30×25×30 cm) fitted with a house light, two retractable levers and a food pellet dispenser. The levers are located on either side of the food receptacle connected to the pellet dispenser. A light emitting diode stimulus light is positioned centrally above each lever and served as a stimulus for visual-cue discrimination learning.
Acquisition of lever-pressing (training). The aim of this phase was to train animals to lever-press to receive a food pellet reward.
Side bias. On the last day of training, the side bias for the rat was determined. The session was similar to the lever pressing session except that both levers were inserted into the chamber together (i.e. 90 levers presentations every 20 seconds). Again, the stimulus lights above each of the levers were not illuminated during this training session. On the first levers presentation, a food pellet was delivered after responding on either lever. Upon subsequent insertion of the levers, food was delivered only if the rat responded on the lever opposite to the one chosen initially. If the rat chose the same lever to the initial choice, no food was delivered. This continued until the rat chose the lever opposite to the one chosen initially. After choosing both levers, a new trial commenced. Thus, one trial for the side bias procedure consisted of responded on both levers. The sessions terminated after 90 levers presentations or after completion of 21 trials.
Visual-cue discrimination learning. After determining the side bias, animals were submitted to visual-cue discrimination learning.
A session began with both levers retracted and the chamber in darkness (the inter-trial state). Every 20 seconds, a trial began with illumination of one of the stimulus lights above one of the levers. 3 seconds later, the house light was illuminated, and both levers were inserted into the chamber. […] After food delivery, the house light remained on for another 4 seconds, after which the chamber returned to the inter-trial state. If the rat responded on the other lever (incorrect response), both levers retracted immediately without food delivery and the chamber reverted to the inter-trial state.

[7] = Study 1, 0.5 mg/kg i.p. 30 min before testing
[8] = Study 2, 0.5 mg/kg i.p. 30 min before testing
[9] = DRFA dose by dose, maximum (COMPOUND A: 90 and 120 mg/kg)
[10] = haloperidol 0.3 mg/kg + apomorphine
[11] = vehicle + apomorphine 0.5 mg/kg s.c.
[12] = S(−)-VLX in plasma, 40 mg/kg PO, fasted rats
[13] = 15 mg/kg PO 20 min prior to EPM
[14] = 30 mg/kg PO 20 min prior to EPM
[15] = 60 mg/kg PO 20 min prior to EPM
[16] = PCP 2 mg/kg s.c., first reversal session
[17] = PCP 2 mg/kg s.c., first set-shift session
[18] = PCP 2 mg/kg s.c., first set-shift to response discrimination session

Structure (SMILES): Cc1ncc2n1-c1ccc(Cl)cc1C(c1ccccc1F)=NC2 [midazolam]
- Closed arm entries [1, 7]: 14.13
- Closed arm returns [1, 7]: 1.38
- Head dips in open arms [1, 7]: 7.00
- Stretch-attend postures [1, 7]: 18.88
- Time in closed arms [1, 7]: 247.54 s
- Time in open arms [1, 7]: 18.47 s
- Total arm entries [1, 7]: 16.75
- % Time in open arms [1, 7]: 6.16 ± 1.96 %
- Open Arm Entries [1, 7]: 2.63 ± 0.78
- Total distance travelled [1, 7]: 2064.55 ± 111.02 cm
- Closed arm entries [1, 8]: 13.89
- Closed arm returns [1, 8]: 1.44
- Head dips in open arms [1, 8]: 5.67
- Stretch-attend postures [1, 8]: 20.33
- Time in closed arms [1, 8]: 259.11 s
- Time in open arms [1, 8]: 18.38 s
- Total arm entries [1, 8]: 16.22
- % Time in open arms [1, 8]: 6.13 ± 1.80 %
- Open Arm Entries [1, 8]: 2.33 ± 0.60
- Total distance travelled [1, 8]: 2052.96 ± 791.05 cm
- anxiolytic activity ([1]; midazolam 0.5 mg/kg i.p., both studies): exhibited anxiolytic activity

Structure (SMILES): CCOc1ccccc1OCC1CNCCO1 (racemic) [Viloxazine, (R,S)-2-[(2-ethoxyphenoxy)methyl]morpholine, reference compound]
- behavioral activity (class/subclass analysis) ([2]; 15 mg/kg PO): low behavioral activity
- behavioral activity (class/subclass analysis) ([2]; 30 mg/kg PO): moderate activity
- behavioral activity (class/subclass analysis) ([2]; 60 and 90 mg/kg PO): high activity
- proximity to donepezil [2, 9]: around 100%
- proximity to thioperamide [2, 9]: around 100%
- proximity to memantine ([2]; DRFA dose by dose, maximum reached): 57%

Structure (SMILES): O=C(CCCN1CCC(O)(c2ccc(Cl)cc2)CC1)c1ccc(F)cc1 [HAL, haloperidol, reference compound]
- Acoustic Startle (AU) (mean ± SEM) [3, 10]: 1774.3 ± 770.6 AU
- % PPI (mean ± SEM) [3, 10]: 55.2 ± 6.3 ^+ %
- effect on apomorphine-induced PPI deficit ([3]; haloperidol 0.3 mg/kg, 75, 80 and 85 dB prepulse levels): significantly antagonized the effects of apomorphine on PPI

Structure (SMILES): CN1CCc2cccc3c2[C@H]1Cc1ccc(O)c(O)c1-3 [APO, apomorphine, reference compound]
- effect on PPI compared to vehicle ([3]; apomorphine 0.5 mg/kg s.c., all three prepulse levels): significantly (p<0.05) diminished PPI
- Acoustic Startle (AU) (mean ± SEM) [3, 11]: 1546.1 ± 260.5 AU
- % PPI (mean ± SEM) [3, 11]: 33.4 ± 5.5 %

Structure (SMILES): C[C@H](N)Cc1ccccc1 [Amphetamine, d-Amphetamine sulfate, reference compound]
- LMA [4]: overall increase in LMA
- Levels of C [4]: generally unaffected
- W and NREM time [4]: increased W and decreased NREM
- latency to sleep onset [4]: increased latency to the onset of both NREM and REM sleep

Structure (SMILES): CCOc1ccccc1OC[C@@H]1CNCCO1 [S(−)-VLX]
- AUC0-last [5, 12]: 3594 ± 1641 ng·h/mL
- AUC(0-inf) [5, 12]: 3600 ng·h/mL
- AUCExtra [5, 12]: 0.20%
- AUMCExtra [5, 12]: 1.64%
- Cmax [5, 12]: 2973 ± 1201 ng/mL
- MRT0-inf [5, 12]: 67.2 min
- MRT0-last [5, 12]: 66 ± 6.36 min
- T1/2 [5, 12]: 58.2 ± 16.3 min
- Tlast [5, 12]: 8.00 h
- Tmax [5, 12]: 25.2 min
- Tmax ([5]; S(−)-VLX in plasma, 40 mg/kg PO, fasted rats, listed as S-Viloxazine): 25 ± 8.64 min
- enantiomer R(+) VLX in plasma ([5]; after S-Viloxazine 40 mg/kg PO, LLOQ 1.5 ng/mL): not detectable at any time points
- Closed arm entries [1, 13]: 7.13
- Closed arm returns [1, 13]: 2.13
- Head dips in open arms [1, 13]: 1.38
- Stretch-attend postures [1, 13]: 17.13
- Time in closed arms [1, 13]: 289.33 s
- Time in open arms [1, 13]: 1.08 s
- Total arm entries [1, 13]: 7.25
- % Time in open arms [1, 13]: 0.36 ± 0.36%
- Open Arm Entries [1, 13]: 0.13 ± 0.13
- Total distance travelled [1, 13]: 1334.42 ± 90.911 cm
- Closed arm entries [1, 14]: 7.88
- Closed arm returns [1, 14]: 2.75
- Head dips in open arms [1, 14]: 3.38
- Stretch-attend postures [1, 14]: 19.38
- Time in closed arms [1, 14]: 277.60 s
- Time in open arms [1, 14]: 6.11 s
- Total arm entries [1, 14]: 8.25
- % Time in open arms [1, 14]: 2.04 ± 1.60%
- Open Arm Entries [1, 14]: 0.38 ± 0.26
- Total distance travelled [1, 14]: 1334.22 ± 68.23 cm
- Closed arm entries [1, 15]: 6.00
- Closed arm returns [1, 15]: 3.50
- Head dips in open arms [1, 15]: 2.88
- Stretch-attend postures [1, 15]: 16.38
- Time in closed arms [1, 15]: 279.11 s
- Time in open arms [1, 15]: 6.43 s
- Total arm entries [1, 15]: 6.50
- % Time in open arms [1, 15]: 2.14 ± 1.52%
- Open Arm Entries [1, 15]: 0.50 ± 0.38
- Total distance travelled [1, 15]: 1350.11 ± 96.17 cm
- anxiolytic activity ([1]; S-VLX 15, 30, 60 mg/kg p.o.): None of the doses of S-Viloxazine were associated with anxiolytic activity
- total distance traveled vs vehicle ([1]; S-VLX 15, 30, and 60 mg/kg p.o.): travelled a significantly shorter distance

Structure (SMILES): c1ccc(C2(N3CCCCC3)CCCCC2)cc1 [PCP, Phencyclidine (PCP) hydrochloride]
- number of errors vs saline controls [6, 16]: +66%
- number of trials to reach the criterion vs saline controls [6, 16]: +35%
- perseverative errors (average) [6, 17]: 35.8
- total errors (average) [6, 17]: 37.8
- number of errors vs saline controls [6, 18]: +47%
- number of trials to reach the criterion vs saline controls [6, 18]: +45%
- number of trials vs saline controls ([6]; PCP, second session (drug-free)): +31%
